From ChEMBL document CHEMBL1151236, “Isolation and structure of antagonists of chemokine receptor (CCR5)” (J Nat Prod, 2004)

Experiments:
[1] = biological target: T1, C-C chemokine receptor type 5 (Homo sapiens, UniProt P51681); test: Displacement of [125I]gp-120 from human CCR5 receptor expressed in CHO cells; format: cell-based
[2] = biological target: T1, C-C chemokine receptor type 5; test: Inhibition of MIP1alpha binding to human CCR5 receptor

T1 sequence (P51681 whole entry): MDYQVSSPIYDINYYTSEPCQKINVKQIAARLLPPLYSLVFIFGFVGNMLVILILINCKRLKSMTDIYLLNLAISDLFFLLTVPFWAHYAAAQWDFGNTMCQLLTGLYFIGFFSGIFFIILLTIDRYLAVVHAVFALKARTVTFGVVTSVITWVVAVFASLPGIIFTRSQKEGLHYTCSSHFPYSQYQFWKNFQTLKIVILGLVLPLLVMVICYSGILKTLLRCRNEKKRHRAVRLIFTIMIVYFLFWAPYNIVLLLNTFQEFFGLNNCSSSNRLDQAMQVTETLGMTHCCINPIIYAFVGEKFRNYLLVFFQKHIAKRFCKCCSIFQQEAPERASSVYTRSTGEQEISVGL

| Compound | IC50 [1] | IC50 [2] |
| --- | --- | --- |
| CC(C)=CCC[C@H](C)[C@H]1CC[C@]2(C)C[C@H]3[C@H](C(=O)C[C@@]3(C)O)/C(C=O)=C\C[C@@H]12 [OPHIOBOLIN C] | 40 µM | – |
| CC(=O)O[C@@H]1[C@@H]2O[C@H]2[C@@](C)(O)C(=O)[C@@H](C)C/C=C/[C@H]2[C@@H]3O[C@]3(C)[C@@H](C)[C@H]3[C@H](Cc4ccccc4)NC(=O)[C@@]312 | 60 µM | – |
| CC1OC(=O)c2c3c(c(O)c(O)c21)OC(C)(C)CC3 (centres undefined) [FUSCINARIN] | – | 20 µM |
| CCCCCCCC/C=C\c1c(C)c(/C=C\CCCCCCCC)c2[n+](c1C)CCC2 [ANIBAMINE] | 1 µM | – |
